Article PMC3914206

Molecular target: T1, panel of 442 kinases (Homo sapiens, UniProt Q9NRM7)
T1 construct: purchased KINOMEscan
T1 sequence (Q9NRM7 1-1088): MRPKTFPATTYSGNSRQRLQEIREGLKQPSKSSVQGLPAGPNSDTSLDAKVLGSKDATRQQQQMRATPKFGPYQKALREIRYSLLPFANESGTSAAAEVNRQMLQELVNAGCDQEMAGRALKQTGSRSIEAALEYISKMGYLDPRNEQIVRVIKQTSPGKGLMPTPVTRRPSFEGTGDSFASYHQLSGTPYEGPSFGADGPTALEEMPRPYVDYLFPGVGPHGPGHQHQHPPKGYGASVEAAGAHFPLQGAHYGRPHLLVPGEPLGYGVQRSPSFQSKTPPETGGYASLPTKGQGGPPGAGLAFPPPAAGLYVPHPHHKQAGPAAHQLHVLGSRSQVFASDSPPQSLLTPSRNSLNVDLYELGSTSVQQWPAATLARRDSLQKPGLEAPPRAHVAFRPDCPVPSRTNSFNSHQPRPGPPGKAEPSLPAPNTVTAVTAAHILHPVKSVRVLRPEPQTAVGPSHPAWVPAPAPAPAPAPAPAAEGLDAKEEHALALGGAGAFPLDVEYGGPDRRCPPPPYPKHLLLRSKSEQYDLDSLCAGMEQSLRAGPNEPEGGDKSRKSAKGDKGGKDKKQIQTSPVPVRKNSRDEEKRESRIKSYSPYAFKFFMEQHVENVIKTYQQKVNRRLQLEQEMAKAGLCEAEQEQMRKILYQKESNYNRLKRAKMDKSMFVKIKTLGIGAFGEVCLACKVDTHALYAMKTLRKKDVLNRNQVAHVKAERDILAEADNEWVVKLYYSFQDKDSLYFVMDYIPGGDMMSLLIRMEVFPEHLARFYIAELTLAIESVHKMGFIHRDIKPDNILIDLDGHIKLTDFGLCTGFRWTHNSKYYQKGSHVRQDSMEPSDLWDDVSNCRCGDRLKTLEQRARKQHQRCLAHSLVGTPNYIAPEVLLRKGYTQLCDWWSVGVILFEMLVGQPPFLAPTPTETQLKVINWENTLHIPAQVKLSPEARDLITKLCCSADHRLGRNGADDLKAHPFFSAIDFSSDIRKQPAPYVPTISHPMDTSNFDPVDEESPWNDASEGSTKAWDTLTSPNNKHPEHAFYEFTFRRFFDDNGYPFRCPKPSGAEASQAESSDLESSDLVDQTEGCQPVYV
Assay type: binding
Settings: Compound Concentration 10 µM
Text: We assessed the selectivity of members of this scaffold using the KINOMEscan methodology across a near comprehensive panel of 442 kinases [[18,27]].

Row | Structure (SMILES) | KINOMEscan: LATS2
1 | COc1cc(C(=O)N2CCC(N3CCN(C)CC3)CC2)ccc1Nc1ncc2c(n1)N(C1CCCC1)c1ccccc1C(=O)N2C [Compound 25, 11-cyclopentyl-2-((2-methoxy-4-(4-(4-methylpiperazin-1-yl)piperidine-1-carbonyl)phenyl)amino)-5-methyl-5H-benzo[e]pyrimido[5,4-b][1,4]diazepin-6(11H)-one] | 92
2 | CCOc1cc(C(=O)N2CCC(N3CCN(C)CC3)CC2)ccc1Nc1ncc2c(n1)N(C1CCCC1)c1ccccc1C(=O)N2C [Compound 26] | 93
3 | COc1cc(C(=O)N2CCC(N3CCN(C)CC3)CC2)ccc1Nc1ncc2c(n1)N(C)c1ccccc1C(=O)N2C [15 (LRRK2-IN-1)] | 95
